“And” between values parts separate entries of the source, which are not always exact repeats. Identical values can stand only once. Like-named read-outs stand apart in the source and are kept apart here. Positions of bridges follow the written chain, without caps; N, C: chain ends. Residues, ends and D or L forms follow the SMILES beside them. *: point of attachment. Biotin = O=C1N[C@H]2[C@H](CS[C@H]2CCCCC(=O)*)N1; PEG4 = NCCOCCOCCOCCOCCC(=O)O

Series [1] has as its target T1, NaV1.7 (Homo sapiens, UniProt Q15858). In words: Recovery from fast inactivation, HEK293-NaV1.7 with peptide in intracellular solution. The series is classed as cell-based. The method, then: To determine recovery from fast inactivation, a 20 ms pulse to 0 mV from a holding potential of −90 mV was used to induce fast inactivation. A subsequent recovery period, ranging from 1 ms to 2216 ms in 50% increments at −90 mV, was followed by a last 20 ms test pulses to 0 mV to determine the time-dependence of recovery from fast inactivation. The proportion of available channels was determined by normalizing peak currents from the last to the first pulse. A two-phase exponential equation was fit to the normalized current, plotted as a function of time, to determine the time constants τ1 and τ2 of recovery from fast inactivation.

For series [2], the target named is T2, NaV1.7/TMEM233 (Homo sapiens, UniProt B4DJY2+Q15858). The series is classed as cell-based. Particulars: best-fit value, log(agonist) vs. response -- variable slope (four parameters). The method, then: HEK293-NaV1.7 cells were transfected with TMEM233, CRELD1, LMAN2L, MMGT1, RNF121 and STT3B and co-transfected with five plasmids coding for the Glycosylphosphatidylinositol (GPI) complex (GPAA1, PIGK, PIGS, PIGU, PIGT) using Lipofectamine 2000. After 24 h, transfected cells were harvested and plated at a density of 10,000–15,000 cells per well on black-walled 384-well imaging plates. Plated cells were cultured for a further 24 h at 37 °C and 5% CO2. FLIPR (Fluorescent Imaging Plate Reader) Red membrane potential assay dye (Molecular Devices, California, USA) was diluted in physiological salt solution according to the manufacturer’s instructions (PSS, in mM: NaCl 140, glucose 11.5, HEPES 10, KCl 5.9, MgCl2 1.4, NaH2PO4 1.2, NaHCO3 5, CaCl2 1.8, pH 7.4). Growth medium was removed from the plate and replaced with 20 µL of FLIPR Red membrane potential assay dye per well and incubated in the dark at 37 °C for 60 min. […] Fluorescence responses to ExTxA were computed as the maximum change in fluorescence over baseline (ΔF/F0) using ScreenWorks (Molecular Devices, Version 5.1.2.94).

Series [3] concerns the target T2, NaV1.7/TMEM233. The series is classed as cell-based.
Series [4] addresses TMEM233 (Homo sapiens, UniProt B4DJY2). In words: ExTxA-488 binding assay, TMEM233. The method, then:
(§1) HEK293 cells (untransfected controls, or transfected with TMEM233, NaV1.7 or both TMEM233 and NaV1.7), were incubated in suspension with ExTxA conjugated to Alexa Fluor 488 (ExTxA-488) in assay buffer (250 mM NaCl, 25 mM HEPES, pH 7) for 30 min at 4 °C. Unbound ExTxA-488 was removed by washing cells three times with assay buffer. Cells were plated at a density of 100,000 cells per well in a volume of 50 µL in a 384-well OptiPlate (PerkinElmer, Massachusetts, USA). Fluorescence intensity (excitation 490 nm; emission 520 nm) was assessed using an Infinite M1000 Pro (Tecan, Männedorf, Switzerland). Concentration-response curves were fitted using the log (agonist) vs. response—variable slope (four parameters) equation and normalized to the largest fitted top from amongst the four groups as computed by GraphPad Prism Version 9.4.1.

Series [5] concerns HEK293 cells. In words: ExTxA-488 binding assay, untransfected/mock HEK293. On the set-up: species or system human. The method, then:
as §1

In series [6] the target is T1, NaV1.7. In words: ExTxA-488 binding assay, NaV1.7. The method, then:
as §1

Series [7] has as its target T2, NaV1.7/TMEM233. In words: ExTxA-488 binding assay, NaV1.7/TMEM233. The method, then: as §1
Series [8] deals with T1, NaV1.7. In kind it is cell-based.
The test system of series [9] is NaV1.7 endogenously expressed in TE-671 cells. In words: Persistent NaV current, TE-671 cells (automated patch clamp). In kind it is cell-based. (In general: In patch-clamp work, channel activity is measured electrically.)
Series [10] concerns total and TTX-s NaV current in wild-type DRG neurons. In words: Persistent total NaV current, manual patch clamp, mouse DRG neurons. In kind it is cell-based.
Series [11] concerns TE-671 cells. Particulars: veratridine 5 µM, ouabain 20 nM.
Series [12] deals with T2, NaV1.7/TMEM233. In words: Proximity ligation assay NaV1.7 and TMEM233. Particulars: Fig 5e. The method, then: HEK293 cells stably expressing β1/β2 were transiently transfected in T25 flasks using Lipofectamine 2000 with plasmids encoding GFP (0.35 μg) as a transfection control, as well as N-terminal HA-tagged TMEM233 (0.35 μg) and N-terminal FLAG- tagged NaV1.7 (1.0 μg) alone or in combination. The total amount of plasmid DNA/T25 flask was kept constant at 1.7 μg flask using empty pcDNA3.1 plasmid as required. After 24 h incubation at 37 °C, cells were plated on PDL-coated glass coverslips and cultured for a further 24 h. Cells were washed once using sterile phosphate-buffered saline, fixed with 4% formaldehyde for 5 min, permeabilized with 0.1% Triton-X 100 in PSS, blocked using proximity ligation bocking buffer (Sigma DUO82007) and incubated for 1 h with anti-FLAG (1:1000; Sigma F1804) and anti-HA (1:1000; Sigma H6908) antibodies in Duolink antibody diluent. Permeabilized cells were then washed twice with wash buffer A at room temperature for 5 min. Anti-mouse PLUS (Sigma DUO92001) and anti-rabbit MINUS (Sigma DUO92005) probes were diluted 1:5 in Duolink antibody diluent and incubated with cells for 1 h at 37 °C. Cells were then washed with wash buffer A at room temperature for 5 min twice and incubated with ligase diluted 1:40 in ligation buffer. After incubation at 37 °C for 30 mins, cells were washed twice with wash buffer A. Polymerase was diluted 1:80 in amplification buffer and incubated with cells for 100 mins at 37 °C. Cells were subsequently washed with wash buffer B twice for 10 mins and mounted with Duolink In Situ mounting media with DAPI. Cells were imaged on a Zeiss AxioImage M2 with Apotome2 and Axiocam 506 camera. Proximity ligation assay signal (PLA particles) in GFP-positive cells were quantified using ImageJ in collapsed stacks from 3–6 random images obtained per coverslip (Image>Type>8-bit; Image>Adjust>Threshold; Image>Analyze>Analyze Particles). Particles size was set to 0.0003–∞ and circularity to 0.00–1.00. The average number of particles/GFP-positive cells from three independent experiments was analyzed by One-way ANOVA.

T1 sequence (Q15858 whole entry): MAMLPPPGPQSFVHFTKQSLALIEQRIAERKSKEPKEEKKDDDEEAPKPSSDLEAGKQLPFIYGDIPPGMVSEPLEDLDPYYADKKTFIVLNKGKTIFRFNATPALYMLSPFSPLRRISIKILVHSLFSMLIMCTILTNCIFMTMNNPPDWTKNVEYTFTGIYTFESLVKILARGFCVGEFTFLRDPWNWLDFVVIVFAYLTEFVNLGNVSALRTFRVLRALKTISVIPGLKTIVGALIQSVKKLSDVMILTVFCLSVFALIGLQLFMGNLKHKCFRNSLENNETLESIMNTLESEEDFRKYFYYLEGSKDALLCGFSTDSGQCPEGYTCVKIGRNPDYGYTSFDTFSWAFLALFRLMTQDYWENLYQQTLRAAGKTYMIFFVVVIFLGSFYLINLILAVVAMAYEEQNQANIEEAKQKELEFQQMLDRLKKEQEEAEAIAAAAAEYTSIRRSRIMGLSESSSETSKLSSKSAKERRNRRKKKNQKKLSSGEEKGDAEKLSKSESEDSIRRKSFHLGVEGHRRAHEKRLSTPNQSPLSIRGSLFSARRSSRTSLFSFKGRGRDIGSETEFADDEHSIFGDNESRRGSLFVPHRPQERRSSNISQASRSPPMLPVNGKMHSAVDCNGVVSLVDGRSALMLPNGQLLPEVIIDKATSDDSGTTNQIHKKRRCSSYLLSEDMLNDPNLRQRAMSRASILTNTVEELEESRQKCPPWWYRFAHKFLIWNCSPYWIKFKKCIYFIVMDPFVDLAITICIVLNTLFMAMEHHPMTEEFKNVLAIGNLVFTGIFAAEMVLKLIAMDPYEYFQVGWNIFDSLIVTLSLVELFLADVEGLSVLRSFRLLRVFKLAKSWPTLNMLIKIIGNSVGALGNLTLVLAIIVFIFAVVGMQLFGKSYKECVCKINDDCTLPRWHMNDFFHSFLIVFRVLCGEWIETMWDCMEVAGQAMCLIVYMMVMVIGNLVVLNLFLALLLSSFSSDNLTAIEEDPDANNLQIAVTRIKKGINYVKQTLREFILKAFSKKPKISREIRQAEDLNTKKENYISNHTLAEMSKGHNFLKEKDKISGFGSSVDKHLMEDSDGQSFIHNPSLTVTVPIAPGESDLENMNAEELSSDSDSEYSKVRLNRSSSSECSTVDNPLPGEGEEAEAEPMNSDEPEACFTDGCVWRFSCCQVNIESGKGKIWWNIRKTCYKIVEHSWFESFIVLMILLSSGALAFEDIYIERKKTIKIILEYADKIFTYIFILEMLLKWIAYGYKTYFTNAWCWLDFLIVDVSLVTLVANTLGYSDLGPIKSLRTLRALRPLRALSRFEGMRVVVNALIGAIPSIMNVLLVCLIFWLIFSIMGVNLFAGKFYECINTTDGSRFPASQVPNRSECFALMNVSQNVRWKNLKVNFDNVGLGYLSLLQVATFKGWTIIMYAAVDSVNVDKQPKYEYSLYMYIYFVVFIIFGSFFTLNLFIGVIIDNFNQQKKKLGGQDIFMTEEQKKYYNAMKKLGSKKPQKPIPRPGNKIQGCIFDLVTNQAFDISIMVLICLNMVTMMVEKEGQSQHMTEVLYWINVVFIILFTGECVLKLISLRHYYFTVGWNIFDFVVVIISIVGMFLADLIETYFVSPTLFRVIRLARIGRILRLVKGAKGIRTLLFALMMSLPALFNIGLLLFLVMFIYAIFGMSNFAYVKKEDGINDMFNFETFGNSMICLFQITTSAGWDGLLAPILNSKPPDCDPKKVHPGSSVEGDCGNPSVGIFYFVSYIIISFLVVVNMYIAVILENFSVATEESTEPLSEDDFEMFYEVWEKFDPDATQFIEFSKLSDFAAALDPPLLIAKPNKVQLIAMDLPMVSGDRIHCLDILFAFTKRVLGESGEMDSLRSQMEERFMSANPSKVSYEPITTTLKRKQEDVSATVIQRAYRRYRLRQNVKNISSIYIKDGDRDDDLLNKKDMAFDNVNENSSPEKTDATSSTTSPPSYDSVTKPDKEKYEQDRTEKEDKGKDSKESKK
T1 sequence (Q07699 19-218, further chain): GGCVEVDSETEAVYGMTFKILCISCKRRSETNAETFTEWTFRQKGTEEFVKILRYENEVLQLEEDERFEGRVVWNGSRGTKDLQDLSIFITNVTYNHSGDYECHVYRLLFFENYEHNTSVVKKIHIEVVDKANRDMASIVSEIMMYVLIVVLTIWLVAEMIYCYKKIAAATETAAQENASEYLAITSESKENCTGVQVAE
TMEM233, sequence (B4DJY2 whole entry): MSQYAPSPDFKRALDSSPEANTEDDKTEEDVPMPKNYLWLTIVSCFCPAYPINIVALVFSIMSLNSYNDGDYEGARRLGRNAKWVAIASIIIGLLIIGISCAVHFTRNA

“1-41 TMEM233 (MSQYAPSPDFKRALDSSPEANTEDDKTEEDVPMPKNYLWLT; UniProt B4DJY2 1-41, looked up, fragment)”: in [1], the “Tau Fast, difference between means (1-41 TMEM233 - BSA control) ± SEM” value turned out to be 3.270 ± 1.361; the “Tau Fast, individual values” is 5.876 and 7.835 and 7.406 and 14.82 and 9.055 and 12.01 and 6.932 and 17.51 and 10.21; the “Tau Fast, mean” value was 10.18.

Take `CC[C@H](C)[C@@H]1NC(=O)[C@H](CCCNC(=N)N)NC(=O)[C@H](Cc2ccccc2)NC(=O)[C@H](CC(C)C)NC(=O)[C@H](CO)NC(=O)[C@@H]2CSSC[C@@H]3NC(=O)[C@H]([C@@H](C)O)NC(=O)[C@H](CSSC[C@H](NC(=O)[C@H](CCCNC(=N)N)NC(=O)[C@@H]4CCCN4C(=O)[C@H](CC(C)C)NC(=O)[C@@H](N)CCCCn4cc(CNC(=O)c5ccc(-c6c7ccc(=N)c(S(=O)(=O)O)c-7oc7c(S(=O)(=O)O)c(N)ccc67)c(C(=O)O)c5)nn4)C(=O)N[C@@H](CC(=O)O)C(=O)N[C@@H](CO)C(=O)N4CCC[C@H]4C(=O)N[C@@H](Cc4ccccc4)C(=O)N2)NC(=O)[C@H](CCCCN)NC(=O)[C@H](CC(=O)O)NC(=O)CNC(=O)[C@H](CSSC[C@@H](C(=O)N[C@H](C(=O)N2CCC[C@H]2C(=O)N[C@@H](CC(=O)O)C(=O)N[C@H](C(=O)O)C(C)C)C(C)C)NC(=O)[C@H](CC(C)C)NC(=O)CNC(=O)[C@H](Cc2ccccc2)NC(=O)[C@H]([C@@H](C)CC)NC(=O)[C@@H]2CCCN2C(=O)[C@H](CC(C)C)NC(=O)[C@@H]2CCCN2C(=O)[C@H](C(C)C)NC3=O)NC(=O)[C@H](CC(C)C)NC(=O)CNC1=O` [Alexa488-ExTxA]: the Bottom in series [2] is given as 2.016e-5. The HillSlope in [2] was 1.084; in series [4], 1.703; in series [5] (Untransfected, four-parameter fit, Top = 1), 0.9756; in series [6] (Nav1.7, four-parameter fit, Top = 1), 0.7934; in series [7], 1.366. In addition, the LogEC50 is given as -7.29 in series [2]; -6.917 in series [4]; -5.409 in [5] (Untransfected, four-parameter fit, Top = 1, 95% CI -5.502 to -5.307); -5.142 in series [6] (Nav1.7, four-parameter fit, Top = 1, 95% CI -5.409 to -4.797); -6.833 in series [7]. The compound also returned a Span in [2] of 0.8012. This compound showed a Top in [2] of 0.8013. In addition, the “Best-fit parameter Bottom” value in [3] was found to be 0.00002. The “Best-fit parameter Hill slope” value in series [3] amounted to 1.084. Further, in series [3], the “Best-fit parameter Top” value came to 0.8013. The “functional activity of tagged ExTxA” value in series [3] was “retained functional activity”. Also, the Max fluorescence in [4] (Alexa488-ExTxA 1 µM, TMEM233, mean ± SEM, n = 3) is reported as 38,681 ± 951.2 AFU; in series [5] (Alexa488-ExTxA 1 µM, HEK293, mean ± SEM, n = 3), 15,740 ± 2133 AFU; in series [6] (Alexa488-ExTxA 1 µM, NaV1.7, mean ± SEM, n = 3), 20,583 ± 3970 AFU; in [7] (Alexa488-ExTxA 1 µM, NaV1.7/TMEM233, mean ± SEM, n = 3) it was 38,799 ± 2471 AFU.

Take `CC[C@H](C)[C@@H]1NC(=O)[C@H](CCCNC(=N)N)NC(=O)[C@H](Cc2ccccc2)NC(=O)[C@H](CC(C)C)NC(=O)[C@H](CO)NC(=O)[C@@H]2CSSC[C@@H]3NC(=O)[C@H]([C@@H](C)O)NC(=O)[C@H](CSSC[C@H](NC(=O)[C@H](CCCNC(=N)N)NC(=O)[C@@H]4CCCN4C(=O)[C@H](CC(C)C)NC(=O)CCOCCOCCOCCOCCNC(=O)CCCC[C@@H]4SC[C@@H]5NC(=O)N[C@@H]54)C(=O)N[C@@H](CC(=O)O)C(=O)N[C@@H](CO)C(=O)N4CCC[C@H]4C(=O)N[C@@H](Cc4ccccc4)C(=O)N2)NC(=O)[C@H](CCCCN)NC(=O)[C@H](CC(=O)O)NC(=O)CNC(=O)[C@H](CSSC[C@@H](C(=O)N[C@H](C(=O)N2CCC[C@H]2C(=O)N[C@@H](CC(=O)O)C(=O)N[C@H](C(=O)O)C(C)C)C(C)C)NC(=O)[C@H](CC(C)C)NC(=O)CNC(=O)[C@H](Cc2ccccc2)NC(=O)[C@H]([C@@H](C)CC)NC(=O)[C@@H]2CCCN2C(=O)[C@H](CC(C)C)NC(=O)[C@@H]2CCCN2C(=O)[C@H](C(C)C)NC3=O)NC(=O)[C@H](CC(C)C)NC(=O)CNC1=O` [ExTxA-Biotin] ({Biotin-PEG4}-LPRCDSPFCSLFRIGLCGDKCTCVPLPIFGLCVPDV-OH; disulfide 4-21, 9-23, 17-32): in [2], the Bottom was -0.001461, the HillSlope amounted to 0.9303, the LogEC50 is -6.256 and the Span came out at 0.7803. Further, in series [2], the Top is recorded as 0.7788.

As for `NC1=N[C@H](O)[C@H]2[C@H]3O[C@]4(O)O[C@@H]([C@@H](O)[C@@]2(N1)[C@@H]4O)[C@]3(O)CO` [TTX, tetrodotoxin, reference compound], the “Mean Diff. of persistent current, ExTxA vs. TTX” value in [8] came out at 0.1483. The “Mean Diff. of persistent current, ExTxA vs. ExTxA + TTX” value in series [9] was 0.2464; in [10], 0.5123.

For the compound `C[C@@H]1O[C@@H](O[C@H]2C[C@@H](O)[C@]3(CO)[C@H]4[C@H](O)C[C@]5(C)[C@@H](C6=CC(=O)OC6)CC[C@]5(O)[C@@H]4CC[C@]3(O)C2)[C@H](O)[C@H](O)[C@H]1O` [ouabain, reference compound], the “cytotoxicity of the concentration used” value in series [11] is given as “non-cytotoxic”.

As to `COc1ccc(C(=O)O[C@H]2CC[C@@]3(C)[C@@H]4CC[C@H]5[C@]6(O)C[C@H](O)[C@@]7(O)[C@@H](CN8C[C@@H](C)CC[C@H]8[C@@]7(C)O)[C@]6(O)C[C@@]53O[C@]24O)cc1OC` [veratridine, reference compound], the “cytotoxicity of the concentration used” value in series [11] is on record as “non-cytotoxic”.

As to BSA control, in series [1], the “Tau Fast, individual values” is 7.097 and 5.916 and 7.352 and 7.278 and 4.563 and 7.588 and 6.382 and 7.242 and 8.803; the “Tau Fast, mean” value turned out to be 6.913.

In the case of FLAG-NaV1.7, in [12] (mean of n = 3), the “particles/cell, mean” value is given as 5.245 particles/cell. Moreover, the results for the particles/cell in series [12] (replicate 1), in series [12] (replicate 2) and in series [12] (replicate 3) were 1.95 particles/cell, 7.467 particles/cell and 6.319 particles/cell, respectively.
